These results are taken from patent EP0004835A1, “Ethanolamine compounds, processes for their preparation, pharmaceutical preparations containing them and their medicinal use” (priority 1978, dated 1979).

Counter-ions that a name gives are not always drawn. Like-named read-outs stand apart in the source and are kept apart here.

Data set [1] has as its system histamine induced bronchospasm. Nature of the data set: Bronchospasmolytic effect in anaesthetized cat (simultaneous recording). Conditions: narcotized cat, i.v. (brachial vein); based on molar dose giving 30 % decrease of histamine induced bronchospasm; terbutaline = 1. The data set is classed as in vivo. On the procedure:
(§1) A. Simultaneous recording of bronchospasmolytic effect, tremorogenic effect and heart stimulating effect
(§2) The bronchospasmolytic effect and the tremorogenic effect were measured simultaneously in anaesthetized cat.
(§3) The method used is described in detail by 0 A T Olsson, Acta pharmacol et toxicol 34, 106-114 (1974).
(§4) Cats weighing 2.5-3.5 kg are anaesthetized with pento- barbital (mebumalum NFN) at first by an intraperitoneal injection (30 mg/kg) and afterwards by continuous intravenous infusion to keep the level of anaesthesia constant during the experiment.
The trachea is cannulated and the lungs inflated with room air by means of a constant volume Braun-respirator. The frequency is 15-20 per min and the tidal volume 8-10 ml per kg, or just sufficient to suppress spontaneous breathing movements and to give about 150 ml/kg/min. The change in tidal volume from administered constricting agents is measured as the amount of air overflow from the delivery of a constant volume to a fixed respiration. The pressure is determined by a water (60-70 mm) pressure threshold and respiratory overflow determined by means of a Grass-volumetric pressure transducer PT 5A. Bronchial tone is increased by inhalation of a histamine aerosol generated in a Roth-Petersen nebulizer from a solution containing 0.1-0.3 mg/ml of histamine and made up to 5 % by glycerol. The nebulizer is connected to the inlet of the respirator when bronchospasm is to be produced. When the respiratory overflow has reached an even level, .the compound to be tested for bronchorealxing activity is injected into the brachial vein.
(§5) The bronchospasmolytic effect is measured as the dose, calculated in moles per kg bodyweight of the test animal, which gives 30 % decrease of the histamine induced bronchospasm. […] The heart stimulating effect is measured as the dose, calculated in moles per kg bodyweight of the test animal, which gives 25 % increase in the heart frequency.

The test system of data set [2] is electrically induced contractions of the soleus muscle. Nature of the data set: Tremorogenic effect in anaesthetized cat (soleus muscle, simultaneous recording). It is filed as in vivo. The following applies: narcotized cat, i.v.; based on molar dose giving 30 % decrease of electrically induced soleus contractions; terbutaline = 1. On the procedure:
as §1, §2, §3, §4
The soleus muscle in the hind limb, consisting mainly a -slow contracting fibres, is prepared essentially according to Bowman & Zaimis, J Physiol 144, 92-107 (1958). The muscle is enclosed in a chamber made of a rubbercovered plastic "hair-curler". The entire leg is wrapped in metal foil covered with plastic to keep the temperature constant at 35-36°C (controlled by thermo couples in the.leg). The cat is placed on its back on a thermostatically controlled operation table and the right hind limb fixed, special care being taken not to impede the blood flow.The tendon is cut and attached to a Grass strain gauge (FT 10C). The isometric tension of the muscle is calibrated to 50 g (resting tension) and 500 g (maximal tension). A plexiglas shielded bipolar Pt-electrode is placed on the tibialis nerve, near the soleus. The incomplete tetanic contractions of the muscle are elicited by a square wave pulse stimulation of the nerve by the use of a Grass S48 stimulator. The pulse duration is 0.05 msec, with frequencies selected in the range 8-12 Hz and the strength between 5-8. volts. The stimulation occurs for 1.8 sec every 20 sec.
as §5

The next data set deals with heart frequency. Nature of the data set: Heart stimulating effect in anaesthetized cat (simultaneous recording). The data set is classed as in vivo. On the procedure:
as §1, §3, §4
Arterial blood pressure is measured with a Statham transducer from a cannulated carotid artery. Heart frequency is monitored by means of a tachometer set to trigger off the R-wave of the electro-cardiogram.
as §5

The subject of data set [3] is histamine induced bronchoconstriction. Nature of the data set: Onset and duration of bronchospasmolytic activity after oral administration, histamine aerosol, unanaesthetized guinea-pigs. The data set is classed as in vivo. The following applies: result in words. On the procedure: These compounds have the structural formulas [drawing 91] (Compound of Example 1) [drawing 92] (Compound of Example 4) The bronchospasmolytic effect was tested as the inhibitory effect on histamine induced bronchoconstriction in unanaesthetized guinea-pigs. The test animals were exposed to a histamine mist generated by a Roth-Petersen nebulizer from a solution of 0.3 mg/ml of histamine-chloride. Guinea-pigs, strain Dunkin-Hartley, both sexes, 160-230 g were used. Saline treated control animals start a forced and irregular breathing after less than 4 minutes exposure to the aerosol. Drug-treated animals sustaining the histamine aerosol 4 minutes without a breathing influence are regarded as protected. The animals were starved for about 15 hours with water ad libitum before the test compound was administered by a stomach tube. Each of the test substances was given in an amount of 4.10^-6 mole/kg bodyweight. Groups of 8-10 animals were tested in the aerosol at 7, 15, 30, 60 and 120 minutes after administration of the test substance. The percentage of the animals which could withstand the aerosol for 4 minutes and for 10 minutes was determined.

For data set [4] the test system is unchanged. Nature of the data set: Bronchospasmolytic activity at oral and subcutaneous administration, histamine aerosol, unanaesthetized guinea-pigs. The data set is classed as in vivo. Conditions: Cavia porcellus, read-out: Dose protecting 50 % of the test animals against the histamine aerosol during more than 4 minutes (ED50). On the procedure:
.The bronchospasmolytic activity of a compound of the invention at oral administration was tested on guinea-pigs. The compound according to Example 1 having the code designation D 2343, was tested. Terbutaline was used as reference substance.
The bronchospasmolytic effect was tested as the inhibitory effect on histamine induced bronchoconstriction in unanaesthetized guinea-pigs.
The test animals were exposed to a histamine mist generated by a Roth-Petersen nebulizer from a solution of 0.3 mg/ml of histamine-chloride.
Guinea-pigs, strain Dunkin-Hartle.y, both sexes, 190-250 g were used. Saline treated control animals start a forced and irregular breathing after less than 4 minutes exposure to the aerosol. Drug-treated animals sustaining the histamine aerosol 4 minutes without a breathing influence are regarded as protected. In the study with oral administration, the animals were starved for about 15 hours with water ad libitum before D 2343 or terbutaline was administered by a stomach tube.
Each compound was administered to 30-40 animals.
In the investigation with oral administration the time from drug administration to exposure of the animal to histamine was 30 minutes.
The ED50 doses are calculated on molar basis in moles per kg bodyweight of the test animal.

A further data set concerns the target a-receptor. Nature of the data set: a-receptor blocking activity, noradrenaline-induced contraction of rabbit aortic strips. Set-up: species or system Albino rabbits. The following applies: rabbit aortic strips, compound added 10 minutes before noradrenaline; called EC 50; 6 preparations from 3 animals; read-out: Concentration inhibiting 50 % noradrenaline-induced contraction. The text has this: The a-receptor blocking activity of two compounds of the invention was investigated. This effect is relevant in the treatment of asthma. It has been shown, e.g. by Nousiainen et al, Pharmacology 15, 469-477 (1977), that certain compounds having a-blocking effect may potentiate the effects of S-receptor-stimulating agents such as terbutaline.
In the test, the a-receptor blocking substance thymoxamine was used as reference.
Albino rabbits of both sexes (2-3 kg) were used. About 5 cm of the aorta was dissected out as near the arch as possible, transferred to a dish with Krebs solution and cut spirally. Usually 3 preparations were received from the dissected piece of vessel. Each strip was mounted in an organ bath in Krebs solution of 37°C and aerated with carbogen. The load on the preparation was 2 g and the tension changes recorded isometrically on Grass transducer FR03 and polygraph P5.
Noradrenaline, which is a strong a-receptor stimulating agent, exerts a contracting effect on the aortic strips when added to the bath. The a-receptor blocking effect of the test compound is measured by adding the test compound to the organ bath before adding nor-adrenaline.
Noradrenaline solution with a concentration producing 70-80 % of maximal contraction (0.03-0.06 µg/ml) was used. The test compound was added to the organ bath 10 minutes before the addition of noradrenaline.
The results are measured as the concentration of the test compound which inhibits the noradrenaline-induced contraction by 50 % (EC 50).
The EC 50 values are based on tests on 6 preparations obtained from 3 animals.

Regarding `COc1ccccc1CC(C)(C)NCC(O)c1ccc(O)cc1` (centres unmarked) [D 2331, 1-(4-Hydroxyphenyl)-2-[1,1-dimethyl--2-(2-methoxyphenyl)ethylaminol]ethanol sulfate], in data set [1], the “Bronchospasmolytic effect in relation to the bronchospasmolytic effect of terbutaline” value (shortened to “Bronchospasmolytic effect in relation”) worked out at 0.12±0.03. Also, the “Tremorogenic effect in relation to the tremorogenic effect of terbutaline” value (from here on “Tremorogenic effect in relation”) in data set [2] was found to be 0.011±0.004. In addition, the “Heart stimulating effect in relation to the heart stimulating effect of terbutaline” value (“Heart stimulating effect in relation” for short) in the data set with heart frequency (narcotized cat, i.v., based on molar dose giving 25 % increase in heart frequency, terbutaline = 1) turned out to be 0.02.
Consider `COc1ccccc1CCC(C)(C)NCC(O)c1ccc(OC(=O)C(C)(C)C)cc1` (centres unmarked) [D 2367, 1-[4-Pivaloyloxy-phenyl]-2-[1,1-dimethyl-3-(2-methoxyphenyl)propylaminolethanol sulfate], for which the “Bronchospasmolytic effect in relation” value in data set [1] came out at 0.28±0.07. Moreover, the “Tremorogenic effect in relation” value in data set [2] was found to be 0.23 ±0.07. Also, in the data set on heart frequency (cat, in vivo, iv), the “Heart stimulating effect in relation” value amounted to 0.16±0.05. Moreover, the “duration of bronchospasmolytic activity” value in data set [3] is on record as “considerably prolonged compared to the duration of the compound of example 1”.
As for `COc1ccccc1CCC(C)(C)NCC(O)c1ccc(OC(=O)c2ccc(C)cc2)cc1` (centres unmarked) [D 2375, 1-[4-(4-Methylbenzoyloxy)--phenyl]-2-[1,1-dimethyl-3-(2-methoxyphenyl)propylaminolethanol sulfate], the “Bronchospasmolytic effect in relation” value in data set [1] was found to be 0.25±0.05. In data set [2], the “Tremorogenic effect in relation” value turned out to be 0.18 ±0.03. The “Heart stimulating effect in relation” value with heart frequency (cat, in vivo, iv) came to 0.26±0.04.
The like results for `CCOc1ccccc1CCC(C)(C)NCC(O)c1ccc(O)cc1` (centres unmarked) [D 2388, 1-(4-hydroxyphenyl)-2-[1,1--dimethyl-3-(2-ethoxyphenyl)propylamino]-ethanol hydrochloride] were, in that order, 1.4±0.2, 0.8±0.2 and 1.
The ED50 is the dose at which the effect has come halfway, by size or by number of responders. For `CC(C)(C)NCC(O)c1cc(O)cc(O)c1` (centres unmarked) [Terbutaline, terbutaline, reference compound], the “Bronchospasmolytic effect in relation” value in data set [1] is 1. For the same compound, the “Tremorogenic effect in relation” value in data set [2] was found to be 1. Further, the “Heart stimulating effect in relation” value with heart frequency (cat, in vivo, iv) turned out to be 1. The ED50 in data set [4] (0.5 h, Oral administration (stomach tube, starved), 30 minutes before histamine) was 5.28 ± 0.86 µmol/kg; in data set [4] (sc, 0.25 h, Subcutaneous administration, 15 minutes before histamine challenge), 0.93 ± 0.14 µmol/kg.
Take `CC(=O)Oc1cc(C(C)C)c(OCCN(C)C)cc1C` [Thymoxamine, thymoxamine, reference compound]: at a-receptor, the IC50 came out at 1500 ± 400 nM.
Same read-out and setting: to `COc1ccccc1CC(C)(C)NCC(O)c1ccc(O)cc1` (centres unmarked) [[drawing]] belongs 500 ± 200 nM.
